One assay concerns P. aeruginosa PAO1. Format: cell-based, Pseudomonas aeruginosa. On the procedure:
(§1) Bicyclic and linear peptides cytotoxicity was assayed against P. aeruginosa PAO1, P. aeruginosa ZEM-1A, P. aeruginosa ZEM9A, K. pneumoniae Oxa-48, E. coli W3110, A. baumannii BAL225, S. aureus Newman, S. aureus COL (clinical isolate of MRSA) , B. Subtilis BR151.
(§2) To determine the Minimal Inhibitory Concentration (MIC), Broth Microdilution method was used . 2 A colony of bacteria from glycerol stock was grown in LB medium overnight at 37 °C and 180 rpm shaking. The compounds were prepared as stock solutions of 8 mg/mL in sterilized milliQ deionized water, added to the first well of 96 -well sterile, polypropylene round bottom microtiter plates (TPP, untreated) and diluted serially by ½. The concentration of the bacteria was quantified by measuring absorbance at 600 nm and diluted to an OD 600 of 0.022 in MH medium. The sample solutions (150 µL) were mixed with 4 µL diluted bacterial suspension with a final inoculation of about 5×10^5 CFU.
(§3) For each test, two columns of the plate were kept for sterility control (MH medium only), growth control (MH medium with bacterial inoculum, no compound). The positive control, Polymyxin B (starting with a concentration of 64 µg/mL) in MH medium with bacterial inoculums, was introduced in the two first lines of the plate. The plates were incubated at 37 °C for ~18 hours under static conditions. 15 μL of 3-(4,5-dimethylthiazol-2-yl)-2,5-diphenyltetrazolium bromide (MTT)3 (1 mg/mL in sterilized milliQ deionized water) were added to each well and the plates were incubated for 20-30 minutes at room temperature. The minimal inhibitory concentration (MIC) was defined as the lowest concentration of the dendrimer that inhibits the visible growth of the tested bacteria (yellow) with the unaided eye.

A further assay concerns P. aeruginosa ZEM-1A. It is filed as cell-based, Pseudomonas aeruginosa. On the procedure: as §1, §2, §3
In another assay the test system is P. aeruginosa ZEM9A. Format: cell-based, Pseudomonas aeruginosa. As for the experimental part: as §1, §2, §3
Assay [1] in a line: Lipid vesicle leakage assay, 5(6)-carboxyfluorescein release. Particulars: 10 μg mL^−1 compound, leakage at 250 s; 10 mM TRIS, 107 mM NaCl, pH 7.4, 25 °C; carboxyfluorescein fluorescence, Triton X-100 = full release. On the procedure: 4 Lipid Vesicle Leakage assays
5(6)-carboxyfluorescein (CF) was purchased from Sigma. Egg Yolk Phosphatidylcholine (EYPC),
Egg Yolk Phosphatidylglycerol (EYPG) and a Mini-Extruder were purchased from Avanti Polar
Lipids. Egg PC or Egg PG thin lipid layers were prepared by evaporating a solution of 100 mg EYPC
or EYPG in 4 mL MeOH/CHCl3 (1:1) on a rotary evaporator at room temperature and then dried in
vacuo overnight. The resulting film was then hydrated with 4 mL CF buffer (50 mM CF, 10 mM
TRIS, 107 mM NaCl, pH 7.4) for 30 min, subjected to freeze-thaw cycles (7×) and extrusion (15×)
through a polycarbonate membrane (pore size 100 nm). Extra vesicular components were removed
by gel filtration (Sephadex G-50) with 10 mM TRIS, 107 mM NaCl, pH 7.4 buffer. Final conditions:
~ 2.5 mM PC or PG; inside: 50 mM CF, 10 mM TRIS, 10 mM NaCl, pH 7.4 buffer; outside: 10 mM
TRIS, 107 mM NaCl, pH 7.4. PC or PG stock solutions (37.5 µL) were diluted to 3000 µL with a
buffer (10 mM TRIS, 107 mM NaCl, pH 7.4) in a thermostated fluorescence cuvette (25 °C) and
gently stirred (final lipid concentration ~31 µM). CF efflux was monitored at λem 517 nm (λex 492
nm) as a function of time after addition of the desired volume of peptide (1 or 20 mg/mL stock in mQ
water) at t = 45 s. The following final concentrations of peptide were monitored: 5, 10, 15, 20, 25 and
200 µg/mL. Finally, 30 µL of 1.2% Triton X -100 was added to the cuvette (0.012% final
concentration) at t = 285 s to reach the maximum intensity. Fluorescence intensities were then
Figure S1: Vesicle leakage experiments using 5(6)-carboxyfluorescein induced by peptides. EYPG and EYPC vesicles
were suspended in buffer (10 mM TRIS, 107 mM NaCl, pH 7.4) and the indicated concentration of the compound was
added after 45 sec. After 285 seconds 30 μL Triton X-100 1.2% was added for full release of fluorescein. […]

The subject of another assay is A. baumannii BAL225. Format: cell-based. As for the experimental part:
as §1, §2, §3

For the next assay, the system named is E. coli W3110. Format: cell-based. On the procedure:
as §1, §2, §3

The subject of the next assay is K. pneumoniae Oxa-48. It is filed as cell-based. As for the experimental part:
as §1, §2, §3

Assay [2] concerns S. aureus COL (clinical isolate of MRSA). It is filed as cell-based. On the procedure:
as §1, §2, §3

The next assay concerns S. aureus Newman. It is filed as cell-based. As for the experimental part:
as §1, §2, §3

The subject of another assay is B. subtilis BR151. Format: cell-based, Bacillus subtilis. Particulars: BR151, 20 h. On the procedure:
as §1, §2
For each test, two columns of the plate were kept for sterility control (MH medium only), growth control (MH medium with bacterial inoculum, no compound). The positive control, Polymyxin B (starting with a concentration of 64 µg/mL) in MH medium with bacterial inoculums, was introduced in the two first lines of the plate. […]
conditions. 15 μL of 3-(4,5-dimethylthiazol-2-yl)-2,5-diphenyltetrazolium bromide (MTT)3 (1 mg/mL in sterilized milliQ deionized water) were added to each well and the plates were incubated for 20-30 minutes at room temperature. The minimal inhibitory concentration (MIC) was defined as the lowest concentration of the dendrimer that inhibits the visible growth of the tested bacteria (yellow) with the unaided eye.

SMILES strings stand for the structures. ≈ marks a conversion by molar mass, not a printed value. Peptide text beside a SMILES is read from it.

For the molecule `Cc1c2cc3cc1CSC[C@H](NC(=O)[C@@H](CCCCN)NC(=O)[C@H](CC(C)C)NC(=O)[C@H](CC(C)C)NC(=O)[C@@H](CCCCN)NC(=O)[C@@H](CCCCN)NC3=O)C(=O)N[C@@H](CC(C)C)C(=O)N[C@H](CCCCN)C(=O)N[C@H](C(=O)N[C@@H](CC(C)C)C(=O)N[C@@H](CC(C)C)C(N)=O)CSC2` [bp69] (HELM PEPTIDE1{[dK].[dK].L.L.[dK].C.L.[dK].C.L.L.[am]}|CHEM1{[Cc1c(C[*:2])cc(C(=O)[*:1])cc1C[*:3]]}$PEPTIDE1,CHEM1,1:R1-1:R1|PEPTIDE1,CHEM1,6:R3-1:R2|PEPTIDE1,CHEM1,9:R3-1:R3$$$V2.0), the “MIC PAO1” value in the assay on P. aeruginosa PAO1 turned out to be 16 µg/mL (≈ 11.1 µM). For the same molecule, the “MIC P. aeruginosa ZEM-1A” value in the assay on P. aeruginosa ZEM-1A was 4 to 8 µg/mL. Besides, in the assay on P. aeruginosa ZEM9A, the “MIC P. aeruginosa ZEM9A” value is greater than 32 µg/mL. In [1], this molecule came in with an EYPC vesicle leakage of 57% and an EYPG vesicle leakage of 48%. Further, the “MIC A. baumannii BAL225” value in the assay with A. baumannii BAL225 came to 4 µg/mL (≈ 2.77 µM). For the same molecule, the “MIC E. coli W3110” value against E. coli W3110 is 8 µg/mL (≈ 5.54 µM). Besides, the “MIC K. pneumoniae Oxa-48” value against K. pneumoniae Oxa-48 came out at 16 µg/mL (≈ 11.1 µM). In [2], the “MIC S. aureus COL” value is 4 µg/mL (≈ 2.77 µM). Moreover, the “MIC S. aureus Newman” value with S. aureus Newman lay within 2 to 4 µg/mL.

Regarding `Cc1c2cc3cc1CSC[C@H](NC(=O)[C@H](CCCCN)NC(=O)[C@H](CC(C)C)NC(=O)[C@H](CC(C)C)NC(=O)[C@H](CCCCN)NC(=O)[C@H](CCCCN)NC3=O)C(=O)N[C@@H](CC(C)C)C(=O)N[C@@H](CCCCN)C(=O)N[C@H](C(=O)N[C@@H](CC(C)C)C(=O)N[C@@H](CC(C)C)C(N)=O)CSC2` [bp65] (HELM PEPTIDE1{K.K.L.L.K.C.L.K.C.L.L.[am]}|CHEM1{[Cc1c(C[*:2])cc(C(=O)[*:1])cc1C[*:3]]}$PEPTIDE1,CHEM1,1:R1-1:R1|PEPTIDE1,CHEM1,6:R3-1:R2|PEPTIDE1,CHEM1,9:R3-1:R3$$$V2.0), the “MIC PAO1” value with P. aeruginosa PAO1 was 8 µg/mL (≈ 5.54 µM). Also, the “MIC P. aeruginosa ZEM-1A” value with P. aeruginosa ZEM-1A came out at 8 µg/mL (≈ 5.54 µM). Besides, in the assay on P. aeruginosa ZEM9A, the “MIC P. aeruginosa ZEM9A” value was greater than 32 µg/mL. In [1], this molecule gave an EYPC vesicle leakage of 37% and an EYPG vesicle leakage of 34%. The “MIC A. baumannii BAL225” value against A. baumannii BAL225 came out at 4 µg/mL (≈ 2.77 µM). In addition, the “MIC E. coli W3110” value against E. coli W3110 worked out at 8 µg/mL (≈ 5.54 µM). The “MIC K. pneumoniae Oxa-48” value in the assay on K. pneumoniae Oxa-48 was 16 µg/mL (≈ 11.1 µM). Further, the “MIC S. aureus COL” value in [2] is 8 µg/mL (≈ 5.54 µM). Moreover, the “MIC S. aureus Newman” value in the assay with S. aureus Newman turned out to be 8 µg/mL (≈ 5.54 µM). Further, the “MIC BR 151” value against B. subtilis BR151 is 2 µg/mL (≈ 1.39 µM).

Source of the values: paper PMC8637766, “A mixed chirality α-helix in a stapled bicyclic and a linear antimicrobial peptide revealed by X-ray crystallography” (RSC Chemical Biology, 2021).
